Patent US20240140950A1, “NITROGEN-CONTAINING POLYCYCLIC AROMATIC COMPOUND, and PREPARATION METHOD AND APPLICATION THEREOF” (priority 2021, published 2024)
Like-named read-outs stand apart in the source and are kept apart here.

Legend:
human melanoma A375 = assay: CCK-8 cell survival assay, A375; assay type: cell-based; conditions: CCK-8, 48 h, read-out: IC50 value of the inhibition on A375
Experimental: (§1) a. […] Reagents • CCK8 reagent kit, purchased from TargetMol China; Annexin V-FITC/PI double staining cell apoptosis detection kit, purchased from Seven Biotech Company. c. Instruments • Multi-function microplate reader FLUOstar Omega, purchased from BMG LABTECH, Germany; • Flow cytometer, purchased from BD Company, United States. d. Experimental Method
(§2) The cells in logarithmic phase with good condition are taken and digested with trypsin, and the prepared culture medium is added to prepare a cell suspension, the cell density being adjusted to 5×10^4 cells/mL. The digested cells are inoculated into a 96-well plate, in which 100 μL of cell suspension is added to each well, and incubated overnight in a cell incubator at 37° C. with 5% CO2. After the cells grow adhered to the wall, the blank control group and the compound groups to be tested with different concentration gradients are set up respectively. […] The optical density value (OD) is measured by using a multifunctional enzyme-linked immunosorbent assay instrument, the wavelength setting to 450 nm. The experiment is repeated for three times, the cell survival rates of different drug concentrations in each group are calculated and counted according to a formula: cell survival rate=(experimental group−blank control group/control group)×100%, and the results are calculated with GraphPad Prism software.

[1] = tested on: human triple negative breast cancer MDA-MB-231; assay: CCK-8 cell survival assay, MDA-MB-231; assay type: cell-based; conditions: CCK-8, 48 h, read-out: IC50 value of the inhibition on MDA-MB-231
Experimental: as §1, §2

[2] = tested on: human lung cancer cell A549; assay: CCK-8 cell survival assay, A549; assay type: cell-based; conditions: CCK-8, 48 h, read-out: IC50 value of the inhibition on A549
Experimental: as §1, §2

mouse myeloma SP2/0 = assay: CCK-8 cell survival assay, SP2/0; assay type: cell-based; conditions: CCK-8, 48 h, read-out: IC50 value of the inhibition on SP2/0
Experimental: as §1, §2

cancer cell HELA = assay: MTT cell inhibition assay, HELA; assay type: cell-based; conditions: 48 h
Experimental: (§4) Two cancer cell lines HELA and MCF-7 in the logarithmic phase and the human normal cell line 293T are taken and the cells thereof are counted with a cell counting plate, and then the concentration of the cell suspension is adjusted to 10^5 cells/mL. The cells are inoculated into a 96-well plate with 100 μL of cell suspension for each well. After the cell suspension is evenly distributed, and the plate is placed into a CO2 incubator for incubation. […] For each drug to be tested and control groups, 100 μL of the drug to be tested is added to each well; and four parallel replicates are set for each concentration. After 48 h cultivation, 10 μL MTT is added for another 4 h cultivation, and the supernatant is discarded. 100 μL analytically pure dimethyl sulfoxide is added, and shaken evenly on a shaking table. After the solution is completely uniform, its absorbance is measured at a wavelength of 490 nm with a microplate reader. The experiment is repeated twice.

cancer cell MCF-7 = assay: MTT cell inhibition assay, MCF-7; assay type: cell-based
Experimental: as §4

human normal cell 293T = assay: MTT cytotoxicity assay, human normal cell 293T; assay type: cell-based; conditions: 48 h, read-out: IC50 value of the inhibition on human normal cell 293T
Experimental: Two cancer cell lines HELA and MCF-7 in the logarithmic phase and the human normal cell line 293T are taken and the cells thereof are counted with a cell counting plate, and then the concentration of the cell suspension is adjusted to 10^5 cells/mL. The cells are inoculated into a 96-well plate with 100 μL of cell suspension for each well. After the cell suspension is evenly distributed, and the plate is placed into a CO2 incubator for incubation. The drug to be tested is added after the cells grow uniformly and have spread on all the bottom of the culture dish. DMEM culture solution is used as a negative control group (the drug to be tested is completely dissolved in the culture solution without dissolving it in DMSO), and cisplatin is used as a positive control group. For each drug to be tested and control groups, 100 μL of the drug to be tested is added to each well; and four parallel replicates are set for each concentration. After 48 h cultivation, 10 μL MTT is added for another 4 h cultivation, and the supernatant is discarded. 100 μL analytically pure dimethyl sulfoxide is added, and shaken evenly on a shaking table. After the solution is completely uniform, its absorbance is measured at a wavelength of 490 nm with a microplate reader. The experiment is repeated twice.

A375 Human melanoma = assay: Flow cytometric detection of cell apoptosis (Annexin V-FITC/PI), A375; assay type: cell-based; conditions: 48 h
Experimental: (§3) The cells that are in logarithmic phase and have good condition are taken, digested with trypsin, the prepared culture medium is added to prepare a cell suspension, and the cell density is adjusted to 5×10^4 cells/mL. The digested cells are inoculated in 6-well plate, in which 2 mL cell suspension is added to each well, and incubated overnight in a cell incubator at 37° C. with 5% CO2. After the cells are adhered to the wall, a blank control group and the group of experimental drug to be tested with different concentration gradients are set respectively. 2 mL drug is added to each well for further cultivation for 48 h, and EDTA-free trypsin is used for cell digestion and the digested cells are collected. For the apoptosis detection, the collected cells are required to be adjusted to the cell density of 1×10^6 cells/mL, put into a 5 mL centrifuge tube and centrifuged at 1000 rpm for 5 min, and then washed with PBS for three times. 100 μL Binding Buffer is added to resuspend the cells, and except for the single-stained control and blank control cells, 5 μL FITC and 5 μL PI are added to each tube, mixed gently, and incubated at room temperature in the dark for 15 min. 400 μL Binding Buffer is added into each well before testing on the machine, and mixed and tested on the machine. • Blank control: drug-induced apoptotic cells—without adding a fluorescent reagent (the voltage of scattered light is adjusted to determine the FSC SSC of the population). • Negative control: normal cells (without drug treatment)—added with all the fluorescent staining reagents of the experiment (at the lower left corner, the voltage of the two fluorescent channels is determined). • Single-stained control: one tube each for FITC and PI, positive control for compensation adjustment: drug-induced apoptotic cells or heat-induced apoptotic cells are added with all fluorescent reagents of the experiment (confirming that there is no problem with reagents, instruments and operations).

[3] = tested on: MDA-MB-231 Human triple negative breast cancer; assay: Flow cytometric detection of cell apoptosis (Annexin V-FITC/PI), MDA-MB-231; assay type: cell-based; conditions: 48 h
Experimental: as §3

[4] = tested on: A549 Human lung cancer cell; assay: Flow cytometric detection of cell apoptosis (Annexin V-FITC/PI), A549; assay type: cell-based; conditions: 48 h
Experimental: as §3

SP2/0 Mouse myeloma = assay: Flow cytometric detection of cell apoptosis (Annexin V-FITC/PI), SP2/0; assay type: cell-based; conditions: for Apoptosis in early stage / Apoptosis in late stage: 48 h
Experimental: as §3

KM mice = assay: Mouse toxicity test (acute, intraperitoneal); assay type: in vivo
From the text: 12 KM mice with body weight 18 g to 22 g and age of 4 to 6 weeks are taken and fed adaptively for 7 days. All mice may eat freely and be provided with sufficient fresh drinking water. The feeding environment for mice meets the standard of SPF laboratory animal level environmental facility.
The behavioral changes after administration and death within 14 days of the animals are observed.

[5] = KM mice, 40 mg/kg intraperitoneal

Work on `N.N.[Cl][Pt][Cl]` [Cisplatin, cisplatin, reference compound] yielded an IC50 (human melanoma A375) of 16.4 ± 0.36 µM, an IC50 [1] of 23.4 ± 1.75 µM and an IC50 [2] of 35.8 ± 1.89 µM. The IC50 (mouse myeloma SP2/0) was 17.4 ± 1.24 µM, the IC50 (cancer cell HELA) was 13.2 µM and the IC50 (cancer cell MCF-7; 48 h) was 14.2 µM. The IC50 (human normal cell 293T) was 17.3 µM.

In the case of `COc1ccc2c(c1)C13CCNC1(C)C1(C)c4[nH]c5ccc(OC)cc5c4CCN1C3N2` (stereo not shown) [Compound 14], the IC50 (human melanoma A375; Homo sapiens, A-375) is reported as 17.1 ± 1.45 µM, the IC50 ([1]; Homo sapiens, MDA-MB-231) is reported as 26 ± 1.43 µM and the IC50 ([2]; Homo sapiens, A549) is reported as 30.8 ± 1.72 µM. For the same compound, the IC50 (mouse myeloma SP2/0; Mus musculus) was 15.1 ± 2.91 µM, the “Apoptosis in early stage” value (A375 Human melanoma; A375, 10 μM) was 27.41 ± 1.87% and the “Apoptosis in late stage” value (A375 Human melanoma; A375, 10 μM) was 10.03 ± 1.87%. The “Apoptosis in early stage” value (A375 Human melanoma; A375, 20 μM) was 34.09 ± 3.2%, the “Apoptosis in late stage” value (A375 Human melanoma; A375, 20 μM) was 13.17 ± 2.30% and the “Apoptosis in early stage” value ([3]; MDA-MB-231, 15 μM) was 9.21 ± 1.14%. The “Apoptosis in late stage” value ([3]; MDA-MB-231, 15 μM) was 13.41 ± 1.24%, the “Apoptosis in early stage” value ([3]; MDA-MB-231, 30 μM) was 17.70 ± 3.31% and the “Apoptosis in late stage” value ([3]; MDA-MB-231, 30 μM) was 16.33 ± 0.72%. For the same compound, the “Apoptosis in early stage” value ([3]; MDA-MB-231, 45 μM) was 20.83 ± 2.79%, the “Apoptosis in late stage” value ([3]; MDA-MB-231, 45 μM) was 23.66 ± 1.70% and the “Apoptosis in early stage” value ([4]; A549, 10 μM) was 4.12 ± 1.73%. The “Apoptosis in late stage” value ([4]; A549, 10 μM) was 9.70 ± 1.18%, the “Apoptosis in early stage” value ([4]; A549, 30 μM) was 16.23 ± 0.90% and the “Apoptosis in late stage” value ([4]; A549, 30 μM) was 16.08 ± 0.62%. For the same compound, the “Apoptosis in early stage” value ([4]; A549, 60 μM) was 41.28 ± 5.36%, the “Apoptosis in late stage” value ([4]; A549, 60 μM) was 27.32 ± 1.22% and the “Apoptosis in early stage” value (SP2/0 Mouse myeloma; SP2/0, 10 μM) was 13.15 ± 0.57%. For the same compound, the “Apoptosis in late stage” value (SP2/0 Mouse myeloma; SP2/0, 10 μM) was 13.44 ± 1.50%, the “Apoptosis in early stage” value (SP2/0 Mouse myeloma; SP2/0, 20 μM) was 35.97 ± 3.37% and the “Apoptosis in late stage” value (SP2/0 Mouse myeloma; SP2/0, 20 μM) was 26.65 ± 1.64%. The “total apoptosis rate at early and late stages” value (SP2/0 Mouse myeloma; SP2/0, 30 μM) was 97%, the “Apoptosis in early stage” value (SP2/0 Mouse myeloma; SP2/0, 30 μM) was 58.56 ± 1.26% and the “Apoptosis in late stage” value (SP2/0 Mouse myeloma; SP2/0, 30 μM) was 39.36 ± 0.87%. For the same compound, the “behavioral changes after administration” value (KM mice; KM mice, 20 mg/kg intraperitoneal) was “no abnormalities”, the “behavior and spirit of the animals” value (KM mice; [5]) was “normal” and the “death within 14 days” value (KM mice; [5]) was “no death occurs”. The “death within 14 days” value (KM mice; KM mice, 60 mg/kg intraperitoneal) was “one animal dies on the sixth day”, the “death within 14 days” value (KM mice; KM mice, 80 mg/kg intraperitoneal) was “two animals die on the second day” and the lethal dose (KM mice; KM mice, intraperitoneal, single injection, 14 days observation) was “about 60 mg/kg”. The “body weight / weight gain” value (KM mice; mouse, in vivo, ip, 20 mg/kg) was “not significantly different” and the “weight gain compared with the negative control group” value (KM mice; mouse, in vivo, ip, 40 mg/kg) was “slower”.

In the case of `Cc1ccc2c(c1)C13CCNC1C1(C)c4[nH]c5ccc(C)cc5c4CCN1C3N2` (stereo not shown) [Compound 20], the IC50 (cancer cell HELA; Homo sapiens, HeLa) is reported as 40.1 µM.

`Cc1ccc2c(c1)C13CCNC1(C)C1(C)c4[nH]c5ccc(C)cc5c4CCN1C3N2` (stereo not shown) [Compound 15] gave an IC50 (cancer cell HELA; Homo sapiens, HeLa) of 23.6 µM, an IC50 (cancer cell MCF-7; Homo sapiens, MCF7, 48 h) of 29.8 µM and an IC50 (human normal cell 293T; Homo sapiens, HEK-293T) of 134 µM.
